The test system of test [1] is MDA-MB-231. The test can be described thus: Antiproliferative activity against human MDA-MB-231 cells assessed as inhibition of cell growth incubated for 36 hrs by SRB assay. Format: functional, cell-based. Conditions: for pIC50: MDA-MB-231, 36 h.
Test [2] has as its system HCC1806. The test can be described thus: Antiproliferative activity against human HCC1806 cells assessed as inhibition of cell growth incubated for 36 hrs by SRB assay. Format: functional, cell-based. The following applies: for pIC50: HCC1806, 36 h.
Test [3] concerns MDA-MB-231. As to the kind of experiment: Antiproliferative activity against human MDA-MB-231 cells assessed as inhibition of cell growth at 20 uM incubated for 36 hrs by SRB assay relative to control. Format: functional.
Test [4] deals with HCC1806. The test can be described thus: Antiproliferative activity against human HCC1806 cells assessed as inhibition of cell growth at 20 uM incubated for 36 hrs by SRB assay relative to control. Format: functional.

pIC50: −log10 of the molar value. Active and inactive are the calls of the source. The calls are words filed in the database; no cut-off is given here.

As for `CC(=O)O[C@@H]1O[C@]2(C[C@@H](C)[C@H]3[C@H](C[C@@]4(C)[C@@H]5CC[C@H]6C(C)(C)[C@@H](O[C@@H]7OC[C@@H](O)[C@H](O)[C@H]7O)CC[C@@]67C[C@@]57C[C@@H](OC(C)=O)[C@]34C)O2)[C@@H]2O[C@]12C`, the pIC50 in test [1] and in test [2] was less than 4.70 in each case.
For `CC(=O)OC1O[C@]2(C[C@@H](C)[C@H]3[C@H](C[C@@]4(C)[C@@H]5CC[C@H]6C(C)(C)[C@@H](O[C@@H]7OC[C@@H](OC(C)=O)[C@H](OC(C)=O)[C@H]7OC(C)=O)CC[C@@]67C[C@@]57C[C@@H](OC(C)=O)[C@]34C)O2)[C@@H]2O[C@]12C` (stereo partly specified), the pIC50 in test [1] is less than 4.70; in test [2], 5.09. Also, the inhibition at 20 µM in test [3] and in test [4] was greater than 50% in each case.
On to `C[C@@H]1C[C@]2(OC(O)[C@@]3(C)O[C@@H]23)O[C@H]2C[C@@]3(C)[C@@H]4CC[C@H]5C(C)(C)[C@@H](O[C@@H]6OC[C@@H](O)[C@H](O)[C@H]6O)CC[C@@]56C[C@@]46CC(=O)[C@]3(C)[C@@H]12` (stereo partly specified), for which the pIC50 in test [1] and in test [2] was less than 4.70 throughout.
`CC(=O)O[C@@H]1[C@@H](OC(C)=O)[C@H](O[C@H]2CC[C@]34C[C@]35C=C[C@]3(C)[C@H]6[C@H](C)C[C@]7(OC(=O)[C@@]8(C)O[C@@H]78)O[C@H]6C[C@@]3(C)[C@@H]5CC[C@H]4C2(C)C)OC[C@H]1OC(C)=O`: the pIC50 in test [1] is less than 4.70; in test [2], 4.87. Moreover, the inhibition at 20 µM in test [3] and in test [4] was greater than 50% each time.
Take `CO[C@H]1O[C@]2(C[C@@H](C)[C@H]3[C@H](C[C@@]4(C)[C@@H]5CC[C@H]6C(C)(C)[C@@H](O[C@@H]7OC[C@@H](OC(C)=O)[C@H](OC(C)=O)[C@H]7OC(C)=O)CC[C@@]67C[C@@]57C[C@@H](OC(C)=O)[C@]34C)O2)[C@@H]2O[C@]12C`: the pIC50 in test [1] and in test [2] was less than 4.70 each time.
For `CC(=O)O[C@@H]1[C@@H](OC(C)=O)[C@H](O[C@H]2CC[C@]34C[C@]35CC(=O)[C@]3(C)[C@H]6[C@H](C)C[C@]7(O[C@@H](OC(=O)CCC(=O)O)[C@@]8(C)O[C@@H]78)O[C@H]6C[C@@]3(C)[C@@H]5CC[C@H]4C2(C)C)OC[C@H]1OC(C)=O`, the pIC50 was 4.92 in test [1] and 4.97 in test [2]. Besides, the inhibition at 20 µM in test [3] and in test [4] was greater than 50% in each case.
Turning to `CO[C@@H]1O[C@]2(C[C@@H](C)[C@H]3[C@H](C[C@@]4(C)[C@@H]5CC[C@H]6C(C)(C)[C@@H](O[C@@H]7OC[C@@H](OC(C)=O)[C@H](OC(C)=O)[C@H]7OC(C)=O)CC[C@@]67C[C@@]57C[C@@H](OC(C)=O)[C@]34C)O2)[C@@H]2O[C@]12C`, the pIC50 in test [1] and in test [2] was less than 4.70 in each case.
For `CC(=O)O[C@@H]1[C@@H](OC(C)=O)[C@H](O[C@H]2CC[C@]34C[C@]35C[C@@H](OC(C)=O)[C@]3(C)[C@H]6[C@H](C)C[C@]7(O[C@H](OC(=O)c8ccc([N+](=O)[O-])cc8)[C@@]8(C)O[C@@H]78)O[C@H]6C[C@@]3(C)[C@@H]5CC[C@H]4C2(C)C)OC[C@H]1OC(C)=O`, the pIC50 in test [1] and in test [2] was less than 4.70 throughout.
Take `CC(=O)O[C@@H]1[C@@H](OC(C)=O)[C@H](O[C@H]2CC[C@]34C[C@]35C[C@@H](OC(C)=O)[C@]3(C)[C@H]6[C@H](C)C[C@]7(O[C@H](OC(=O)c8ccccc8)[C@@]8(C)O[C@@H]78)O[C@H]6C[C@@]3(C)[C@@H]5CC[C@H]4C2(C)C)OC[C@H]1OC(C)=O`: the pIC50 in test [1] and in test [2] was less than 4.70 throughout.
Take `CC(=O)OC1O[C@]2(C[C@@H](C)[C@H]3[C@H](C[C@@]4(C)[C@@H]5CC[C@H]6C(C)(C)[C@@H](O[C@@H]7OC[C@@H](OC(C)=O)[C@H](OC(C)=O)[C@H]7OC(C)=O)CC[C@@]67C[C@@]57CC(=O)[C@]34C)O2)[C@@H]2O[C@]12C` (stereo partly specified): the outcome in test [1] and in test [2] was inactive.
For the compound `C[C@@H]1C[C@]2(OC(=O)[C@@]3(C)O[C@@H]23)O[C@H]2C[C@@]3(C)[C@@H]4CC[C@H]5C(C)(C)[C@@H](O[C@@H]6OC[C@@H](O)[C@H](O)[C@H]6O)CC[C@@]56C[C@@]46C=C[C@]3(C)[C@@H]12`, the pIC50 in test [1] and in test [2] was less than 4.70 each time.
Take `C[C@@H]1C[C@]2(OC(=O)[C@@]3(C)O[C@@H]23)O[C@H]2C[C@@]3(C)[C@@H]4CC[C@H]5C(C)(C)[C@@H](O[C@@H]6OC[C@@H](O)[C@H](O)[C@H]6O)CC[C@@]56C[C@@]46C[C@H](F)[C@]3(C)[C@@H]12`: the pIC50 in test [1] and in test [2] was less than 4.70 each time.
In the case of `CC(=O)O[C@@H]1[C@@H](OC(C)=O)[C@H](O[C@H]2CC[C@]34C[C@]35CC(=O)[C@]3(C)[C@H]6[C@H](C)C[C@]7(OC(OC(=O)c8ccccc8)[C@@]8(C)O[C@@H]78)O[C@H]6C[C@@]3(C)[C@@H]5CC[C@H]4C2(C)C)OC[C@H]1OC(C)=O` (stereo partly specified), the result in test [1] and in test [2] was inactive.
Regarding `CC(=O)O[C@@H]1[C@@H](OC(C)=O)[C@H](O[C@H]2CC[C@]34C[C@]35CC(=O)[C@]3(C)[C@H]6[C@H](C)C[C@]7(OC(OC(=O)c8ccccc8F)[C@@]8(C)O[C@@H]78)O[C@H]6C[C@@]3(C)[C@@H]5CC[C@H]4C2(C)C)OC[C@H]1OC(C)=O` (stereo partly specified), the result in test [1] and in test [2] was inactive.
Consider `CC(=O)O[C@@H]1C[C@@]23C[C@@]24CC[C@H](O[C@@H]2OC[C@@H](O)[C@H](O)[C@H]2O)C(C)(C)[C@@H]4CC[C@H]3[C@]2(C)C[C@@H]3O[C@]4(C[C@@H](C)[C@@H]3[C@@]12C)OC(=O)[C@@]1(C)O[C@@H]41`, for which the pIC50 in test [1] and in test [2] was less than 4.70 in each case.
Consider `CC(=O)O[C@@H]1[C@@H](OC(C)=O)[C@H](O[C@H]2CC[C@]34C[C@]35C[C@@H](OC(C)=O)[C@]3(C)[C@H]6[C@H](C)C[C@]7(O[C@H](OC(=O)/C=C/c8ccc(OC(F)(F)F)cc8)[C@@]8(C)O[C@@H]78)O[C@H]6C[C@@]3(C)[C@@H]5CC[C@H]4C2(C)C)OC[C@H]1OC(C)=O`, for which the pIC50 in test [1] and in test [2] was less than 4.70 in each case.
Take `COc1ccc(C(=O)O[C@H]2O[C@]3(C[C@@H](C)[C@H]4[C@H](C[C@@]5(C)[C@@H]6CC[C@H]7C(C)(C)[C@@H](O[C@@H]8OC[C@@H](OC(C)=O)[C@H](OC(C)=O)[C@H]8OC(C)=O)CC[C@@]78C[C@@]68C[C@@H](OC(C)=O)[C@]45C)O3)[C@@H]3O[C@]23C)cc1`: the pIC50 in test [1] and in test [2] was less than 4.70 each time.
`CC(=O)O[C@@H]1[C@@H](OC(C)=O)[C@H](O[C@H]2CC[C@]34C[C@]35C[C@@H](OC(C)=O)[C@]3(C)[C@H]6[C@H](C)C[C@]7(O[C@H](OC(=O)c8ccccc8F)[C@@]8(C)O[C@@H]78)O[C@H]6C[C@@]3(C)[C@@H]5CC[C@H]4C2(C)C)OC[C@H]1OC(C)=O`: the pIC50 in test [1] and in test [2] was less than 4.70 throughout.
In the case of `COC1O[C@]2(C[C@@H](C)[C@H]3[C@H](C[C@@]4(C)[C@@H]5CC[C@H]6C(C)(C)[C@@H](O[C@@H]7OC[C@@H](O)[C@H](O)[C@H]7O)CC[C@@]67C[C@@]57C[C@@H](OC(C)=O)[C@]34C)O2)[C@@H]2O[C@]12C` (stereo partly specified), the pIC50 in test [1] and in test [2] was less than 4.70 in each case.
Regarding `C[C@@H]1C[C@]2(OC(O)[C@@]3(C)O[C@@H]23)O[C@H]2C[C@@]3(C)[C@@H]4CC[C@H]5C(C)(C)[C@@H](O[C@@H]6OC[C@@H](O)[C@H](O)[C@H]6O)CC[C@@]56C[C@@]46C[C@@H](O)[C@]3(C)[C@@H]12` (stereo partly specified), the pIC50 in test [1] and in test [2] was less than 4.70 in each case.
Regarding `CC(=O)O[C@@H]1C[C@@]23C[C@@]24CC[C@H](O[C@@H]2OC[C@@H](O)[C@H](O)[C@H]2O)C(C)(C)[C@@H]4CC[C@H]3[C@]2(C)C[C@@H]3O[C@]4(C[C@@H](C)[C@@H]3[C@@]12C)O[C@@H](OC(=O)CCC(=O)O)[C@@]1(C)O[C@@H]41`, the pIC50 in test [1] and in test [2] was less than 4.70 throughout.
`CC(=O)O[C@@H]1[C@@H](OC(C)=O)[C@H](O[C@H]2CC[C@]34C[C@]35C[C@H](F)[C@]3(C)[C@H]6[C@H](C)C[C@]7(OC(=O)[C@@]8(C)O[C@@H]78)O[C@H]6C[C@@]3(C)[C@@H]5CC[C@H]4C2(C)C)OC[C@H]1OC(C)=O`: the pIC50 in test [1] and in test [2] was less than 4.70 each time.
Regarding `CC(=O)O[C@H]1O[C@]2(C[C@@H](C)[C@H]3[C@H](C[C@@]4(C)[C@@H]5CC[C@H]6C(C)(C)[C@@H](O[C@@H]7OC[C@@H](O)[C@H](O)[C@H]7O)CC[C@@]67C[C@@]57C[C@@H](OC(C)=O)[C@]34C)O2)[C@@H]2O[C@]12C`, the pIC50 in test [1] and in test [2] was less than 4.70 each time.
Regarding `CC(=O)O[C@@H]1[C@@H](OC(C)=O)[C@H](O[C@H]2CC[C@]34C[C@]35C[C@@H](OC(C)=O)[C@]3(C)[C@H]6[C@H](C)C[C@]7(OC(=O)[C@@]8(C)O[C@@H]78)O[C@H]6C[C@@]3(C)[C@@H]5CC[C@H]4C2(C)C)OC[C@H]1OC(C)=O`, the pIC50 in test [1] and in test [2] was less than 4.70 in each case.
Turning to `CC(=O)O[C@@H]1[C@@H](OC(C)=O)[C@H](O[C@H]2CC[C@]34C[C@]35CC(=O)[C@]3(C)[C@H]6[C@H](C)C[C@]7(OC(=O)[C@@]8(C)O[C@@H]78)O[C@H]6C[C@@]3(C)[C@@H]5CC[C@H]4C2(C)C)OC[C@H]1OC(C)=O`, the result in test [1] and in test [2] was inactive.
